# pIC50: −log10 of the molar value.
# Test system: 885512-296-R-J2-PDC complex spheroid growth, % test/control
# Assay: Anticancer human tumor 885512-296-R-J2-PDC patient-derived breast carcinoma cell line growth inhibition [AhR]
# Settings: for pIC50: curve of first compound; for viability, T/C: stronger effect = lower value
# Procedure, shortened: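 Agents were dosed in half-log steps down from roughly clinical Cmax, or from 10 microM where Cmax was unknown, alone and with AhR antagonists. Read-out: percent test/control growth of tumor spheroids containing HUVEC and MSC stromal cells.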
# [1] = second compound 0.1 µM, first compound 0.0316 µM
# [2] = second compound 0.1 µM, first compound 0.1 µM
# [3] = second compound 0.1 µM, first compound 0.316 µM
# [4] = second compound 0.1 µM, first compound 1 µM
# [5] = second compound 0.1 µM, first compound 3.16 µM
# [6] = second compound 0.1 µM, first compound 10 µM
# [7] = second compound 0.316 µM, first compound 0.0316 µM
# [8] = second compound 0.316 µM, first compound 0.1 µM
# [9] = second compound 0.316 µM, first compound 0.316 µM
# [10] = second compound 0.316 µM, first compound 1 µM
# [11] = second compound 0.316 µM, first compound 3.16 µM
# [12] = second compound 0.316 µM, first compound 10 µM
# [13] = second compound 1 µM, first compound 0.0316 µM
# [14] = second compound 1 µM, first compound 0.1 µM
# [15] = second compound 1 µM, first compound 0.316 µM
# [16] = second compound 1 µM, first compound 1 µM
# [17] = second compound 1 µM, first compound 3.16 µM
# [18] = second compound 1 µM, first compound 10 µM
# [19] = second compound 3.16 µM, first compound 0.0316 µM
# [20] = second compound 3.16 µM, first compound 0.1 µM
# [21] = second compound 3.16 µM, first compound 0.316 µM
# [22] = second compound 3.16 µM, first compound 1 µM
# [23] = second compound 3.16 µM, first compound 3.16 µM
# [24] = second compound 3.16 µM, first compound 10 µM
# [25] = second compound 10 µM, first compound 0.0316 µM
# [26] = second compound 10 µM, first compound 0.1 µM
# [27] = second compound 10 µM, first compound 0.316 µM
# [28] = second compound 10 µM, first compound 1 µM
# [29] = second compound 10 µM, first compound 3.16 µM
# [30] = second compound 10 µM, first compound 10 µM
# 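Note: spheroids exposed to compounds for seven days.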
smiles,measurement,setting,value
CC(C)c1c(-c2ccccc2)nc2c(C#N)c[nH]n2c1=O + Cc1cncc(-c2nc(NCCc3c[nH]c4ccccc34)c3ncn(C(C)C)c3n2)c1,pIC50,second compound 0.1 µM,< 5.00
same,pIC50,second compound 0.316 µM,< 5.00
same,pIC50,second compound 1 µM,< 5.00
same,pIC50,second compound 3.16 µM,< 5.00
same,pIC50,second compound 10 µM,> 7.50
same,"viability, T/C",[1],108%
same,"viability, T/C",[2],108%
same,"viability, T/C",[3],101%
same,"viability, T/C",[4],109%
same,"viability, T/C",[5],97.1%
same,"viability, T/C",[6],86.6%
same,"viability, T/C",[7],104%
same,"viability, T/C",[8],108%
same,"viability, T/C",[9],105%
same,"viability, T/C",[10],93.3%
same,"viability, T/C",[11],102%
same,"viability, T/C",[12],89.3%
same,"viability, T/C",[13],94.5%
same,"viability, T/C",[14],95.4%
same,"viability, T/C",[15],83%
same,"viability, T/C",[16],83.2%
same,"viability, T/C",[17],80.8%
same,"viability, T/C",[18],81.8%
same,"viability, T/C",[19],62%
same,"viability, T/C",[20],59.7%
same,"viability, T/C",[21],56.2%
same,"viability, T/C",[22],62.1%
same,"viability, T/C",[23],60.5%
same,"viability, T/C",[24],52.3%
same,"viability, T/C",[25],17%
same,"viability, T/C",[26],18.7%
same,"viability, T/C",[27],17.9%
same,"viability, T/C",[28],14.5%
same,"viability, T/C",[29],17.9%
same,"viability, T/C",[30],17.9%
CC1COCCN1c1cc(-c2ccnn2C)c2ccnc(-c3ccn[nH]3)c2n1 (stereo not given) + Cc1cncc(-c2nc(NCCc3c[nH]c4ccccc34)c3ncn(C(C)C)c3n2)c1,pIC50,second compound 0.1 µM,7.46
same,pIC50,second compound 0.316 µM,7.48
same,pIC50,second compound 1 µM,7.66
same,pIC50,second compound 3.16 µM,8.49
same,pIC50,second compound 10 µM,> 8.50
same,"viability, T/C","second compound 0.1 µM, first compound 0.00316 µM",99.4%
same,"viability, T/C","second compound 0.1 µM, first compound 0.01 µM",85.3%
same,"viability, T/C",[1],55.2%
same,"viability, T/C",[2],9.6%
same,"viability, T/C",[3],3.2%
same,"viability, T/C",[4],2.72%
same,"viability, T/C","second compound 0.316 µM, first compound 0.00316 µM",83.1%
same,"viability, T/C","second compound 0.316 µM, first compound 0.01 µM",95.9%
same,"viability, T/C",[7],51.9%
same,"viability, T/C",[8],9.85%
same,"viability, T/C",[9],3.26%
same,"viability, T/C",[10],2.57%
same,"viability, T/C","second compound 1 µM, first compound 0.00316 µM",74.4%
same,"viability, T/C","second compound 1 µM, first compound 0.01 µM",71.3%
same,"viability, T/C",[13],40.3%
same,"viability, T/C",[14],7.24%
same,"viability, T/C",[15],2.89%
same,"viability, T/C",[16],2.37%
same,"viability, T/C","second compound 3.16 µM, first compound 0.00316 µM",48.9%
same,"viability, T/C","second compound 3.16 µM, first compound 0.01 µM",50.1%
same,"viability, T/C",[19],33.7%
same,"viability, T/C",[20],8.94%
same,"viability, T/C",[21],2.55%
same,"viability, T/C",[22],2.78%
same,"viability, T/C","second compound 10 µM, first compound 0.00316 µM",13.3%
same,"viability, T/C","second compound 10 µM, first compound 0.01 µM",15.6%
same,"viability, T/C",[25],9.95%
same,"viability, T/C",[26],6.27%
same,"viability, T/C",[27],3.04%
same,"viability, T/C",[28],2.87%
CC1COCCN1c1cc(C2(S(C)(=N)=O)CC2)nc(-c2ccnc3[nH]ccc23)n1 (stereo not given) + Cc1cncc(-c2nc(NCCc3c[nH]c4ccccc34)c3ncn(C(C)C)c3n2)c1,pIC50,second compound 0.1 µM,5.64
same,pIC50,second compound 0.316 µM,5.71
same,pIC50,second compound 1 µM,5.82
same,pIC50,second compound 3.16 µM,6.55
same,pIC50,second compound 10 µM,> 7.50
same,"viability, T/C",[1],99.8%
same,"viability, T/C",[2],102%
same,"viability, T/C",[3],103%
same,"viability, T/C",[4],95%
same,"viability, T/C",[5],32.3%
same,"viability, T/C",[6],4.89%
same,"viability, T/C",[7],99.2%
same,"viability, T/C",[8],99.5%
same,"viability, T/C",[9],97.3%
same,"viability, T/C",[10],81.9%
same,"viability, T/C",[11],26.9%
same,"viability, T/C",[12],6.7%
same,"viability, T/C",[13],86.4%
same,"viability, T/C",[14],86.1%
same,"viability, T/C",[15],82.9%
same,"viability, T/C",[16],64.7%
same,"viability, T/C",[17],23.6%
same,"viability, T/C",[18],4.77%
same,"viability, T/C",[19],65%
same,"viability, T/C",[20],55.3%
same,"viability, T/C",[21],47.7%
same,"viability, T/C",[22],42.4%
same,"viability, T/C",[23],20.4%
same,"viability, T/C",[24],6.04%
same,"viability, T/C",[25],22.3%
same,"viability, T/C",[26],22.7%
same,"viability, T/C",[27],19.9%
same,"viability, T/C",[28],18.2%
same,"viability, T/C",[29],12.5%
same,"viability, T/C",[30],5%
COc1ccc([C@@H](O)c2cc(-c3ncnc4cc(N5CCOCC5)ccc34)c(F)cc2Cl)nn1 + Cc1cncc(-c2nc(NCCc3c[nH]c4ccccc34)c3ncn(C(C)C)c3n2)c1,pIC50,second compound 0.1 µM,< 5.00
same,pIC50,second compound 0.316 µM,5.10
same,pIC50,second compound 1 µM,5.21
same,pIC50,second compound 3.16 µM,6.03
same,pIC50,second compound 10 µM,> 7.50
same,"viability, T/C",[1],101%
same,"viability, T/C",[2],93.2%
same,"viability, T/C",[3],87.4%
same,"viability, T/C",[4],87.3%
same,"viability, T/C",[5],63.1%
same,"viability, T/C",[6],51.7%
same,"viability, T/C",[7],104%
same,"viability, T/C",[8],89.7%
same,"viability, T/C",[9],81.9%
same,"viability, T/C",[10],86.5%
same,"viability, T/C",[11],65.9%
same,"viability, T/C",[12],45.1%
same,"viability, T/C",[13],90.9%
same,"viability, T/C",[14],78.4%
same,"viability, T/C",[15],86.8%
same,"viability, T/C",[16],77.7%
same,"viability, T/C",[17],63.2%
same,"viability, T/C",[18],39.5%
same,"viability, T/C",[19],55.2%
same,"viability, T/C",[20],55.5%
same,"viability, T/C",[21],48.2%
same,"viability, T/C",[22],53.3%
same,"viability, T/C",[23],42.6%
same,"viability, T/C",[24],32.4%
same,"viability, T/C",[25],18.1%
same,"viability, T/C",[26],15.5%
same,"viability, T/C",[27],16.1%
same,"viability, T/C",[28],13.2%
same,"viability, T/C",[29],11.3%
same,"viability, T/C",[30],9.01%
O=C(C=Cn1cnc(-c2cc(C(F)(F)F)cc(C(F)(F)F)c2)n1)NNc1cnccn1 + Cc1cncc(-c2nc(NCCc3c[nH]c4ccccc34)c3ncn(C(C)C)c3n2)c1,pIC50,second compound 0.1 µM,7.22
same,pIC50,second compound 0.316 µM,7.16
same,pIC50,second compound 1 µM,7.18
same,pIC50,second compound 3.16 µM,7.37
same,pIC50,second compound 10 µM,> 8.02
same,"viability, T/C","second compound 0.1 µM, first compound 0.00949 µM",93.3%
same,"viability, T/C","second compound 0.1 µM, first compound 0.03 µM",99.9%
same,"viability, T/C","second compound 0.1 µM, first compound 0.0949 µM",20.3%
same,"viability, T/C","second compound 0.1 µM, first compound 0.3 µM",4.2%
same,"viability, T/C","second compound 0.1 µM, first compound 0.949 µM",2.2%
same,"viability, T/C","second compound 0.1 µM, first compound 3 µM",1.61%
same,"viability, T/C","second compound 0.316 µM, first compound 0.00949 µM",97.4%
same,"viability, T/C","second compound 0.316 µM, first compound 0.03 µM",93%
same,"viability, T/C","second compound 0.316 µM, first compound 0.0949 µM",33.8%
same,"viability, T/C","second compound 0.316 µM, first compound 0.3 µM",5.36%
same,"viability, T/C","second compound 0.316 µM, first compound 0.949 µM",2.35%
same,"viability, T/C","second compound 0.316 µM, first compound 3 µM",1.45%
same,"viability, T/C","second compound 1 µM, first compound 0.00949 µM",98.2%
same,"viability, T/C","second compound 1 µM, first compound 0.03 µM",89.4%
same,"viability, T/C","second compound 1 µM, first compound 0.0949 µM",31.6%
same,"viability, T/C","second compound 1 µM, first compound 0.3 µM",4.92%
same,"viability, T/C","second compound 1 µM, first compound 0.949 µM",2.78%
same,"viability, T/C","second compound 1 µM, first compound 3 µM",1.53%
same,"viability, T/C","second compound 3.16 µM, first compound 0.00949 µM",64.6%
same,"viability, T/C","second compound 3.16 µM, first compound 0.03 µM",66.2%
same,"viability, T/C","second compound 3.16 µM, first compound 0.0949 µM",14.8%
same,"viability, T/C","second compound 3.16 µM, first compound 0.3 µM",5.25%
same,"viability, T/C","second compound 3.16 µM, first compound 0.949 µM",2.77%
same,"viability, T/C","second compound 3.16 µM, first compound 3 µM",1.58%
same,"viability, T/C","second compound 10 µM, first compound 0.00949 µM",19.2%
same,"viability, T/C","second compound 10 µM, first compound 0.03 µM",16.8%
same,"viability, T/C","second compound 10 µM, first compound 0.0949 µM",8.05%
same,"viability, T/C","second compound 10 µM, first compound 0.3 µM",4.48%
same,"viability, T/C","second compound 10 µM, first compound 0.949 µM",3.45%
same,"viability, T/C","second compound 10 µM, first compound 3 µM",2.01%

# Reference: PubChem BioAssay AID1919006 (Molecular Pharmacology Branch, DTP, NCI, 2023)
